Paper PMC6017322, “Triterpene Acids from Frankincense and Semi-Synthetic Derivatives That Inhibit 5-Lipoxygenase and Cathepsin G” (Molecules : A Journal of Synthetic Chemistry and Natural …, 2018)

Columns and labels:
5-LO [1] = target: T1, 5-LO (Homo sapiens, UniProt P09917); test: 5-LO activity in a cell-free assay (isolated human recombinant 5-LO, 20 µM arachidonic acid); format: biochemical; parameters: made in house; host or cells: Escherichia coli BL21 (pT3-5-LO plasmid); settings: for remaining activity at 10 µM / 5-LO Activity [% Control] cell-free: residual activity at 10 µM, isolated 5-LO, mean ± SEM, 3–4 experiments; for remaining activity at 10 µM / 5-LO Activity [% Control] cell-free / IC50: 20 µM arachidonic acid; for remaining activity at 10 µM: read-out: 5-LO Activity [% Control] cell-free; for IC50: isolated human 5-LO
T1 sequence (P09917 1-674): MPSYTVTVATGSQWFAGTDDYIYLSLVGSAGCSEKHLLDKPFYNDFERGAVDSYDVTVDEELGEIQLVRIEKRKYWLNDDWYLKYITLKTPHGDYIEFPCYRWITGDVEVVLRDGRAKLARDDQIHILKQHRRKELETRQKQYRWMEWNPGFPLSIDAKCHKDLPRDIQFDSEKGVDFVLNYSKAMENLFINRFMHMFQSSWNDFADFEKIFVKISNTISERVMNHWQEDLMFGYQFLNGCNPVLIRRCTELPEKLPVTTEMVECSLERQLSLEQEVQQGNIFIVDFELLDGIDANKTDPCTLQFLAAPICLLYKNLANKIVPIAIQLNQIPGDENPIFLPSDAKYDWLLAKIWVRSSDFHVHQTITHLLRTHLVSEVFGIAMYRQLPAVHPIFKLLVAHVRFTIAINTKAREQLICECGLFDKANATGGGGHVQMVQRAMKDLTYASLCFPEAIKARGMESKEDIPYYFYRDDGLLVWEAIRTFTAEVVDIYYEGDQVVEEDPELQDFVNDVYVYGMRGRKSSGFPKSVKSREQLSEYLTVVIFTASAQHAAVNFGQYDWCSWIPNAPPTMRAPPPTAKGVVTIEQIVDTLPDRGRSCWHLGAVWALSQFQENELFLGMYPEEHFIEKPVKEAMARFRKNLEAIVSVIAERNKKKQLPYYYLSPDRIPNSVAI
Protocol: Human recombinant 5-LO was expressed in Eschericha coli BL21 transformed with pT3-5-LO plasmid at 30 °C overnight, as described elsewhere. Cells were lysed in lysis buffer containing triethanolamine (50 mM, pH 8.0), EDTA (5 mM), phenylmethanesulfonyl fluoride (1 mM), soybean trypsin inhibitor (60 µg/mL), dithiothreitol (2 mM), and lysozyme (1 mg/mL), and homogenized by sonification (3 × 15 s). 5-LO was then purified from 40,000× g supernatant (20 min, 4 °C) using an ATP-agarose column (Sigma-Aldrich, Deisenhofen, Germany), diluted with PBS buffer containing 1 mM EDTA, and immediately used for 5-LO activity assays.
To determine 5-LO activity, aliquots of purified 5-LO (0.5 µg 5-LO in 1 mL PBS plus 1 mM EDTA) were pre-incubated with the test compounds or vehicle (0.1% dimethyl sulfoxide, DMSO) on ice for 15 min, pre-warmed for 30 s at 37 °C in a water bath, and then stimulated with 20 µM AA and CaCl2 2 mM for 10 min at 37 °C. The reaction was stopped with one volume of ice-cold methanol and 5-LO products (including all-trans-isomers of LTB4 and 5-hydroperoxyeicosatetraenoic acid (5-HpETE), as well as its corresponding alcohol 5-hydroxyeicosatetraenoic acid (5-HETE)) were analyzed by reversed phase (RP)-HPLC (Elite LaChrom, VWR, Radnor, PA, USA) as previously described. In brief, acidified PBS and 200 ng of internal PGB1 standard were added and solid phase extraction using C18 RP-columns (100 mg, UCT, Bristol, PA, USA) was performed. After elution with methanol, samples were analyzed by RP-HPLC using a C-18 Radial-PAK column (Waters, Eschborn, Germany).

cathepsin G = target: T2, cathepsin G (Homo sapiens, UniProt P08311); test: Cathepsin G activity in a cell-free assay (Suc-AAPF-pNA substrate); format: biochemical; settings: for IC50: read-out: Cat. G IC50 (converted); for remaining activity at 10 µM / Cat. G Activity [% Control]: residual activity at 10 µM, mean ± SEM, 3–4 experiments; for remaining activity at 10 µM: read-out: Cat. G Activity [% Control]; for inhibition of cathepsin G / inhibition at 10 µM: at 10 µM
T2 construct: purified cathepsin G (0.2 µg) from human neutrophils; purchased Calbiochem; host or cells: human neutrophils (natural source)
T2 sequence (P08311 21-244 limits assumed): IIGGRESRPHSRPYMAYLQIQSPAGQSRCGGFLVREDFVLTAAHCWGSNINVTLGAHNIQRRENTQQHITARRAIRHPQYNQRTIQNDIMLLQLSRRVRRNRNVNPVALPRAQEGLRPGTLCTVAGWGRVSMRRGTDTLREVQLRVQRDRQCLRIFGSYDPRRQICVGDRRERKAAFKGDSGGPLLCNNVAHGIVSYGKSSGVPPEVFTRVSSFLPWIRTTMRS
Protocol: Commercially available purified cathepsin G (0.2 µg) from human neutrophils (Calbiochem, La Jolla, CA, USA) was mixed with test compounds or DMSO (vehicle control) in 200 µL 0.1 M HEPES pH 7.4, 0.5 M NaCl, and 10% DMSO in a 96-well plate (Greiner Bio-One, Frickenhausen, Germany) and pre-incubated for 20 min at 25 °C. Then, N-Suc–Ala–Ala–Pro–Phe–pNA (Suc–AAPF–pNA) (1 mM) as substrate for cathespin G was added, and the absorbance was measured at 410 nm at 25 °C using a Victor^2 plate reader (PerkinElmer, Waltham, MA, USA).

5-LO [2] = target: T1, 5-LO; test: 5-LO product formation in intact human neutrophils stimulated with A23187 (cell-based); parameters: 5-LO product formation in intact human neutrophils; endogenous in cells; host or cells: freshly isolated human peripheral blood neutrophils; settings: for inhibition at 10 µM: read-out: inhibition of 5-LO activity in intact cells; for remaining activity at 10 µM: read-out: 5-LO Activity [% Control] cell-based; for IC50: human neutrophils stimulated with A23187
Protocol: Neutrophils were isolated from peripheral blood (University Hospital Tübingen, Germany), collected from fasted healthy adult donors that were informed about the aim of the study and gave written consent. Leukocyte concentrates were obtained by centrifugation (4000× g, 20 min, 20 °C) of heparinized blood preparation, and neutrophils were immediately isolated as described before. Briefly, leukocyte concentrates were subjected to dextran sedimentation and centrifuged on lymphocyte separation medium (LSM 1077, PAA, Coelbe, Germany). For isolation of pelleted neutrophils, remaining erythrocytes were removed by hypotonic lysis, washed twice with ice-cold phosphate-buffered saline (PBS) and finally resuspended in PBS buffer containing 0.1% glucose and CaCl2 (1 mM) (PGC buffer).
5-LO product formation in intact human neutrophils was performed using 5 × 10^6 freshly isolated cells that were resuspended in 1 mL PGC buffer. Cells were pre-incubated with the test compounds or vehicle (0.1% DMSO) at 37 °C for 15 min prior to stimulation with 2.5 µM Ca^2+-ionophore A23187 for 10 min (37 °C). 5-LO product formation was stopped by addition of one volume of ice-cold methanol, samples were subjected to solid phase extraction after addition of 200 ng PGB1 as internal standard, and 5-LO products (LTB4, its trans-isomers and 5-HETE) were analyzed by RP-HPLC as described above.

[3] = cell-free, purified cathepsin G from human neutrophils
[4] = residual activity at 10 µM, human neutrophils, A23187, mean ± SEM, 3–4 experiments

| Compound | inhibition at 10 µM (5-LO [1]) [%] | remaining activity at 10 µM (5-LO [1]) [%] | IC50 (cathepsin G; [3]) [µM] | remaining activity at 10 µM (cathepsin G; cell-free) [%] | remaining activity at 10 µM (5-LO [2]; [4]) [%] | IC50 (5-LO [2]) [µM] | also measured |
| --- | --- | --- | --- | --- | --- | --- | --- |
| C[C@H]1[C@H](C)CC[C@]2(C)CC[C@]3(C)C(=CC[C@@H]4[C@@]5(C)CC[C@@H](O)[C@](C)(C(=O)O)[C@@H]5CC[C@]43C)[C@H]12 [compound 3, β-BA] | 21 to 26 | 78.7 ± 12.6 | 0.5 | 27.7 ± 1.8 | 53 ± 7.6 |  | Cat. G IC50 (cathepsin G; [3]): submicromolar; inhibition at 10 µM (5-LO [2]; human neutrophils): 47% |
| CC(=O)O[C@@H]1CC[C@]2(C)C3=C(CC[C@H]2C1(C)C)[C@@]1(C)CC[C@@H]([C@H](CCC=C(C)C)C(=O)O)[C@]1(C)CC3 [compound 17] |  | 75.6 ± 3 |  | 66.7 ± 4.5 | 75.5 ± 2.1 |  | inhibition at 10 µM (cathepsin G): 27 to 44% |
| C=C(C)[C@@H]1CC[C@]2(CO)CC[C@]3(C)[C@H](CC[C@@H]4[C@@]5(C)CC[C@@H](O)[C@](C)(C(=O)O)[C@@H]5CC[C@]43C)[C@@H]12 [compound 11] |  | 52.7 ± 7.1 |  | 68.1 ± 6.5 | 24 ± 7.2 | 4.6 | IC50 (5-LO [1]): 10 µM; inhibition at 10 µM (cathepsin G): 27 to 44% |
| CC(C)=CCC[C@H](C(=O)O)[C@@H]1CC[C@]2(C)C3=C(CC[C@@]12C)[C@@]1(C)CCC(=O)C(C)(C)[C@@H]1CC3 [compound 16] |  | 77.1 ± 8.7 |  | 53.1 ± 5.5 | 37.8 ± 2.4 | 7.1 | inhibition at 10 µM (cathepsin G): 27 to 44% |
| C=C(C)[C@@H]1CC[C@]2(CO)CC[C@]3(C)[C@H](CC[C@@H]4[C@@]5(C)CC[C@@H](OC(C)=O)[C@](C)(C(=O)O)[C@@H]5CC[C@]43C)[C@@H]12 [compound 12] |  | 41.8 ± 3.4 |  | 87.2 ± 2.5 | 28.4 ± 11.1 | 5.1 | IC50 (5-LO [1]): 8.3 µM; inhibition of cathepsin G (cathepsin G): failed to markedly inhibit cathepsin G |

Now from value to compound, other results behind:

| inhibition at 10 µM (5-LO [1]) [%] | remaining activity at 10 µM (5-LO [1]) [%] | IC50 (cathepsin G; [3]) [µM] | remaining activity at 10 µM (cathepsin G; cell-free) [%] | remaining activity at 10 µM (5-LO [2]; [4]) [%] | Compound | IC50 (5-LO [2]) [µM] | also measured |
| --- | --- | --- | --- | --- | --- | --- | --- |
|  | 75 ± 4.8 |  |  | 80.8 ± 6.8 | C[C@H]1[C@H](C)CC[C@]2(C)CC[C@]3(C)C(=CC(=O)[C@@H]4[C@@]5(C)CC[C@@H](OC(=O)CCC(=O)O)[C@](C)(C(=O)O)[C@@H]5CC[C@]43C)[C@H]12 [compound 23, 3-O-Succinoyl-11-keto-β-boswellic acid] |  | inhibition of cathepsin G (cathepsin G): not active; Cat. G Activity [% Control] (cathepsin G; cell-free): n.i. |
|  | 85.9 ± 11.1 |  | 59.4 ± 7.6 | 60.3 ± 8 | C[C@H]1[C@H](C)CC[C@]2(C)CC[C@]3(C)C(=CC[C@@H]4[C@@]5(C)CC[C@@H](OC(=O)CCC(=O)O)[C@](C)(C(=O)O)[C@@H]5CC[C@]43C)[C@H]12 [compound 22, 3-O-Succinoyl-β-boswellic acid] |  |  |
|  |  | 4.7 | 38.1 ± 6.4 | 77.3 ± 5.7 | C[C@H]1[C@H](C)CC[C@]2(C)CC[C@]3(C)C(=CC[C@@H]4[C@@]5(C)CC[C@@H](OC(=O)C(=O)O)[C@](C)(C(=O)O)[C@@H]5CC[C@]43C)[C@H]12 [compound 20, 3-O-Oxaloyl-β-boswellic acid] |  | 5-LO Activity [% Control] cell-free (5-LO [1]): n.i. |
| < 25 | 72.8 ± 7.1 |  | 62.9 ± 6.6 | 18.3 ± 2.7 | C[C@H]1[C@H](C)CC[C@]2(C)CC[C@]3(C)C(=C[C@@H](O)[C@@H]4[C@@]5(C)CC[C@@H](O)[C@](C)(C(=O)O)[C@@H]5CC[C@]43C)[C@H]12 [compound 18, 11α-Hydroxy-β-boswellic acid] | 2.8 |  |
|  | 78.1 ± 7.4 | 3.4 | 28.8 ± 7.4 | 57.6 ± 5.3 | C[C@H]1[C@H](C)CC[C@]2(C)CC[C@]3(C)C(=CC[C@@H]4[C@@]5(C)CC[C@@H](OCC(=O)O)[C@](C)(C(=O)O)[C@@H]5CC[C@]43C)[C@H]12 [compound 26, 3-O-Carboxymethyl-β-boswellic acid] |  | inhibition at 10 µM (5-LO [2]; human neutrophils): 42% |
|  |  |  |  | 70.3 ± 6.9 | C[C@H]1[C@H](C)CC[C@]2(C)CC[C@]3(C)C(=CC(=O)[C@@H]4[C@@]5(C)CC[C@@H](OC(=O)C(=O)O)[C@](C)(C(=O)O)[C@@H]5CC[C@]43C)[C@H]12 [compound 21, 3-O-Oxaloyl-11-keto-β-boswellic acid] |  | 5-LO Activity [% Control] cell-free (5-LO [1]): n.i.; inhibition of cathepsin G (cathepsin G): not active; Cat. G Activity [% Control] (cathepsin G; cell-free): n.i. |
| 21 to 26 | 73.5 ± 13.3 | 2 | 28.1 ± 4.9 |  | CC(=O)O[C@@H]1CC[C@@]2(C)[C@@H](CC[C@]3(C)[C@@H]2CC=C2[C@@H]4[C@@H](C)[C@H](C)CC[C@]4(C)CC[C@]23C)[C@@]1(C)C(=O)O [compound 4, 3-O-acteyl-β-BA] |  | 5-LO Activity [% Control] cell-based (5-LO [2]; [4]): n.i. |
| 27 | 73 ± 8.1 |  | 53.8 ± 8.1 | 7.1 ± 3.3 | CC(C)[C@@H]1CC[C@]2(C)[C@H](C(=O)C=C3[C@@H]4[C@@H](C)[C@H](C)CC[C@]4(C)CC[C@]32C)[C@@]1(C)CCC(=O)O [compound 7] | 4.3 |  |
